From patent publication US20250228835A1, “PYRIDINYLOXYPYRIDINES AND RELATED COMPOUNDS AND THEIR USE IN TREATING MEDICAL CONDITIONS” (Rectify Pharmaceuticals, Inc., priority 2024, published 2025)

Key:
[1] = target: T1, ABCC6 WT (Homo sapiens, UniProt O95255); assay: ABCC6 WT assay: HiBit protein expression; assay type: cell-based; details: HEK-293 cells transiently expressing HiBit-tagged ABCC6 WT; 24 h treatment; top concentration 20 μM; read-out: ABCC6 WT EC50, Emax
T1 construct: expressed in transfected cells; host or cells: HEK-293 (transient, Lipofectamine 2000)
Method in brief: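 HEK-293 cells transiently transfected with HiBit-tagged human ABCC6 WT cDNA, seeded 24 h post-transfection, treated 24 h at 37° C with ten 2-fold doses (top 20 μM final, 0.15% DMSO). HiBit lytic luminescence reports protein expression; Emax and EC50 derived.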

[2] = target: T2, ABCD2 WT (Homo sapiens, UniProt Q9UBJ2); assay: D2 correction dose-response assay: ABCD2 WT HiBit protein expression; assay type: cell-based; details: HEK-293/ABCD2 WT cells, 24 hours treatment, HiBit luminescence; class combines EC50 and Mean MaxAct (fold); read-out: ABCD2 WT EC50, Emax
T2 construct: expressed in transfected cells
T2 sequence (Q9UBJ2 1-740): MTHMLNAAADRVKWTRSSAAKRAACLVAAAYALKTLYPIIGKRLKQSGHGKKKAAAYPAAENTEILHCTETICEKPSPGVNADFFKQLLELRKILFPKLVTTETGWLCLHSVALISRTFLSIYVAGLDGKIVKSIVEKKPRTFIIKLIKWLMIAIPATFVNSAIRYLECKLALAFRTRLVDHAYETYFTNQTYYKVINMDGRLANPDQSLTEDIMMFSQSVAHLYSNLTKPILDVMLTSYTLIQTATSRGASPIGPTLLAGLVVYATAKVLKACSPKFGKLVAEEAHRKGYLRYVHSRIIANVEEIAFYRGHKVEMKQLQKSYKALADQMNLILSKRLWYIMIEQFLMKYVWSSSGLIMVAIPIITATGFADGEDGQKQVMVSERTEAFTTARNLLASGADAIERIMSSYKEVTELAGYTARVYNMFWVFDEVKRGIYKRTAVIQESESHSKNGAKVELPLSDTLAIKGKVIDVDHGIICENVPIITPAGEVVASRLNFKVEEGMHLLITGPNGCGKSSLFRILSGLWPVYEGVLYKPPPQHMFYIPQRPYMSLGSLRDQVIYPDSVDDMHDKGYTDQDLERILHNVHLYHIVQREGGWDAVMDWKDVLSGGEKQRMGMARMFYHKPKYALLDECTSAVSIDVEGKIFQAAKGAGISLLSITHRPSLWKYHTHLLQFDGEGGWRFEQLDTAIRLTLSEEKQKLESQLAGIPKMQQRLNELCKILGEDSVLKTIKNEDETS
Method in brief: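 HEK-293 cells stably expressing HiBit-tagged human ABCD2 WT were treated with 11 doses (3-fold dilutions, top final 30 μM, 0.3% DMSO) for 24 h at 37 °C. Expression was measured by HiBit lytic luminescence after 1 h at 25 °C, giving EC50 and Emax.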

T1 sequence (O95255 whole entry): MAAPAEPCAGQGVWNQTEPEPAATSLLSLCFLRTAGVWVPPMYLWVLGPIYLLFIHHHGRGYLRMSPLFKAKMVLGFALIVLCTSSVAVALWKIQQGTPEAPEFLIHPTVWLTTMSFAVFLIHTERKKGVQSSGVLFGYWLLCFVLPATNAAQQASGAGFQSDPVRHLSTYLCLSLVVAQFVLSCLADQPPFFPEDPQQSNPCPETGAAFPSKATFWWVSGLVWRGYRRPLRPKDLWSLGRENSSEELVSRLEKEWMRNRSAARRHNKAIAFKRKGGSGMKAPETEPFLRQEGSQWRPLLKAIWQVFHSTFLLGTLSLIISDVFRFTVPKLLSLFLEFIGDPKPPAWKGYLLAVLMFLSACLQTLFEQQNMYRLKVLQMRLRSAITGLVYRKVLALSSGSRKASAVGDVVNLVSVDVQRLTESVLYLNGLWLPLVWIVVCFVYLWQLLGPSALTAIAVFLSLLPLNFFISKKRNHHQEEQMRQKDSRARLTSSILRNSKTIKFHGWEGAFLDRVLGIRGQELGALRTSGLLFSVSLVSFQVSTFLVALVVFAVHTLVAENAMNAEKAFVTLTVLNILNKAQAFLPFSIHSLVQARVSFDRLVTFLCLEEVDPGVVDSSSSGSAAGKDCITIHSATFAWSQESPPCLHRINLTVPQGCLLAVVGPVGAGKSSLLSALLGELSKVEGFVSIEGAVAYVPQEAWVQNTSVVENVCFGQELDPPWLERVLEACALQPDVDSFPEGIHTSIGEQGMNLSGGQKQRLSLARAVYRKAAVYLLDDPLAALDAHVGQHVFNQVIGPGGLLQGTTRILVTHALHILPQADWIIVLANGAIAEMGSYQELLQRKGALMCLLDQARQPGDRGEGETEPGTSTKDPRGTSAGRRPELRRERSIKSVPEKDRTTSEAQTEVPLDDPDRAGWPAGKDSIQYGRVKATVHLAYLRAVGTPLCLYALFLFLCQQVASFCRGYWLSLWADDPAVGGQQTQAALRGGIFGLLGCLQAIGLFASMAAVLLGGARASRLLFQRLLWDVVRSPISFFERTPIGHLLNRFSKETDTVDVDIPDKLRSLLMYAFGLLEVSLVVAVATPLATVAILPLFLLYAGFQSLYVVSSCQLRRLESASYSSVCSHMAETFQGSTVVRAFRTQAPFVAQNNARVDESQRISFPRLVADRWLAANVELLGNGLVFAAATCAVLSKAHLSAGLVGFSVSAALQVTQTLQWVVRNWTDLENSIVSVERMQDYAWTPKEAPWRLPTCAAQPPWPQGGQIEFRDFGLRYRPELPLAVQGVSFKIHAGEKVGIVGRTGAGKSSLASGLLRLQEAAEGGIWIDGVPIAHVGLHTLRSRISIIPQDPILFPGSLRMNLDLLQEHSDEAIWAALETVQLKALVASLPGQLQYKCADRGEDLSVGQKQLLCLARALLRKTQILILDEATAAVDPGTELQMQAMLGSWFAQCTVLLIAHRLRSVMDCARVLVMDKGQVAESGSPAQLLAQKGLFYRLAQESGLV

| EC50 [1] | EC50 [2] | SMILES |
| --- | --- | --- |
| < 1000 nM | 1 to 10 µM | Cc1cc(C)c(Oc2nc(-c3cncc(C#N)c3)ccc2NS(=O)(=O)C2COC2)c(C)n1 [Compound I-228] |
| < 1000 nM | < 1 µM | Cc1cc(C(F)(F)F)nc(C)c1Oc1nc(-c2ccnc(C#N)c2)ccc1NS(C)(=O)=O [Compound I-219] |
| 1000 to 10000 nM | 1 to 10 µM | Cc1cc(C)c(Oc2nc(-c3cncc(N4CCOCC4)c3)ccc2NS(C)(=O)=O)c(C)n1 [Compound I-201] |
| 1000 to 10000 nM | 10 to 25 µM | COC(=O)N1CCN(c2ccc(NS(C)(=O)=O)c(Oc3c(C)cc(C)cc3C)n2)CC1 [Compound I-16] |
| < 1000 nM | 1 to 10 µM | Cc1nc(C2CC2)c(Cl)cc1Oc1nc(-c2cncc(C#N)c2)ccc1NS(C)(=O)=O [Compound I-120] |
| < 1000 nM | 1 to 10 µM | Cc1nc(C2COC2)nc(C)c1Oc1nc(-c2cncc(C#N)c2)ccc1NS(C)(=O)=O [Compound I-174] |
| < 1000 nM | < 1 µM | Cc1nc(C(F)(F)F)nc(C)c1Oc1nc(-c2cncc(C#N)c2)ccc1NS(C)(=O)=O [Compound I-200] |
| 1000 to 10000 nM | 10 to 25 µM | Cc1nc(C)c(Oc2nc(-c3cncc(C(F)F)c3)ccc2NS(C)(=O)=O)c(C)n1 [Compound I-191] |
| 1000 to 10000 nM | 1 to 10 µM | CNS(=O)(=O)c1ccc(-c2cncc(C#N)c2)nc1Oc1c(C)nc(C(F)(F)F)nc1C [Compound I-167] |
| ≥ 25000 nM | > 25 µM | Cc1cc(C)c(Oc2nc(-c3cncc(C(C)(C)O)c3)ccc2NS(C)(=O)=O)c(C)n1 [Compound I-220] |
| < 1000 nM | < 1 µM | Cc1cc(C(F)F)nc(C)c1Oc1nc(-c2cncc(C#N)c2)ccc1NS(C)(=O)=O [Compound I-230] |
| < 1000 nM | > 25 µM | Cc1nc(C)c(Oc2nc(-c3cncc(C(F)(F)F)c3)ccc2NS(C)(=O)=O)c(C)n1 [Compound I-192] |
| < 1000 nM | < 1 µM | COc1cc(C)c(Oc2nc(-c3cncc(C#N)c3)ccc2NS(C)(=O)=O)c(C)n1 [Compound I-222] |
| < 1000 nM | 1 to 10 µM | Cc1nc(N2CC(F)(F)C2)nc(C)c1Oc1nc(-c2cncc(C#N)c2)ccc1NS(C)(=O)=O [Compound I-170] |
| < 1000 nM | < 1 µM | Cc1cc(C(F)F)nc(C)c1Oc1nc(-c2ccnc(C#N)c2)ccc1NS(C)(=O)=O [Compound I-204] |
| < 1000 nM | 1 to 10 µM | Cc1nc(C)c(Oc2nc(-c3cncc(C#N)c3)ccc2NS(C)(=O)=O)c(C2CC2)n1 [Compound I-165] |
| < 1000 nM | < 1 µM | CCS(=O)(=O)Nc1ccc(-c2cncc(C#N)c2)nc1Oc1c(C)cc(C(F)(F)F)nc1C [Compound I-217] |
| < 1000 nM | > 25 µM | Cc1cc(C(F)F)nc(C)c1Oc1nc(-c2cncc(Cl)c2)ccc1NS(C)(=O)=O [Compound I-202] |
| < 1000 nM | > 25 µM | Cc1cc(C2CCC2)nc(C)c1Oc1nc(-c2cncc(C#N)c2)ccc1NS(C)(=O)=O [Compound I-208] |
| < 1000 nM | 1 to 10 µM | Cc1cc(C(F)F)nc(C)c1Oc1nc(-c2cncc(C3COC3)c2)ccc1NS(C)(=O)=O [Compound I-197] |
| < 1000 nM | < 1 µM | Cc1cc(C(F)F)nc(C)c1Oc1nc(-c2ccnc(C#N)c2)ccc1NS(=O)(=O)C1CC1 [Compound I-203] |
| 1000 to 10000 nM | 1 to 10 µM | CNS(=O)(=O)c1ccc(-c2cncc(C#N)c2)nc1Oc1c(C)cc(C(F)(F)F)nc1C [Compound I-168] |
| 1000 to 10000 nM | 1 to 10 µM | Cc1nc(C)c(C2CC2)cc1Oc1nc(-c2cncc(C#N)c2)ccc1NS(C)(=O)=O [Compound I-229] |
| 1000 to 10000 nM | 10 to 25 µM | Cc1nc(N2CC(S(C)(=O)=O)C2)nc(C)c1Oc1nc(-c2cncc(C#N)c2)ccc1NS(C)(=O)=O [Compound I-169] |
| ≥ 25000 nM | > 25 µM | Cc1cc(C)c(Oc2nc(-c3cncc(C4CN(C)C4)c3)ccc2NS(C)(=O)=O)c(C)n1 [Compound I-194] |
